Assays:
[1] = test system: TNF release; test: TNF assay: TNF release from LPS-stimulated human PBMCs (TNF ELISA); format: cell-based; conditions: PBMC; LPS-stimulated human PBMCs, TNF ELISA; read-out: IC50 (TNF assay)
Outline: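 TNF ELISA on supernatants read-out; cells were 10k human PBMCs/well given LPS at 10 ng/mL for 18 h after a 2 h compound pre-incubation across a concentration series, with IC50 derived for suppression of TNF secretion.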

[2] = test system: NF-κB; test: NF-κB assay: THP1-NF-κB-LUC cells, LPS-stimulated secreted luciferase; format: cell-based; conditions: THP1-NF-κB-LUC cells, LPS-stimulated; read-out: IC50 (NF-κB assay)
Outline: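 THP1-NF-κB-LUC cells (25k/well) were pretreated with compounds for 2 h, then stimulated with LPS (10 ng/mL) for 18 h. Secreted luciferase was measured and normalized to vehicle, and IC50 was fitted from the concentration series.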

Structure (SMILES) | IC50 [1] [µM] | IC50 [2] [µM]
CC(C)C[S+]([O-])c1sc(-c2cccc(F)c2)nc1S(=O)(=O)c1ccc(F)cc1 (stereo not drawn) [BC19588] | > 10 | 1 to 10
CCCS(=O)(=O)c1sc(-c2cccc(F)c2)nc1S(=O)(=O)c1ccc(F)cc1 [BC19589] | 1 to 10 | 1 to 10
CCC[S+]([O-])c1sc(-c2cccc(F)c2)nc1S(=O)(=O)c1ccc(F)cc1 (stereo not drawn) [BC19590] | 1 to 10 | 1 to 10
CC(C)[S+]([O-])c1sc(-c2cccc(F)c2)nc1S(=O)(=O)c1ccc(F)cc1 (stereo not drawn) [BC19591] | 1 to 10 | 1 to 10
O=S(=O)(CC1CC1)c1sc(-c2cccc(F)c2)nc1S(=O)(=O)c1ccc(Cl)cc1 [BC19592] | 1 to 10 | 1 to 10
CC(C)C[S+]([O-])c1sc(-c2ccc(Cl)cc2)nc1S(=O)(=O)c1ccc(F)cc1 (stereo not drawn) [BC19593] | 1 to 10 | 0.1 to 1
O=S(=O)(c1ccc(F)cc1)c1nc(-c2ccc(Cl)cc2)sc1[S+]([O-])C1CCCCC1 (stereo not drawn) [BC19594] | > 10 | > 10
C[S+]([O-])c1sc(-c2cccc(F)c2)nc1S(=O)(=O)c1ccc(F)cc1 (stereo not drawn) [BC19595] | 0.1 to 1 | 0.1 to 1
CS(=O)(=O)c1sc(-c2cccc(F)c2)nc1S(=O)(=O)c1ccc(F)cc1 [BC19596] | 1 to 10 | 0.1 to 1
O=S(=O)(c1ccc(F)cc1)c1nc(-c2cccc(F)c2)sc1[S+]([O-])CC1CC1 (stereo not drawn) [BC19597] | > 10 | 1 to 10
O=S(=O)(CC1CC1)c1sc(-c2cccc(F)c2)nc1S(=O)(=O)c1ccc(F)cc1 [BC19598] | 1 to 10 | 1 to 10
COCC[S+]([O-])c1sc(-c2cccc(F)c2)nc1S(=O)(=O)c1ccc(F)cc1 (stereo not drawn) [BC19599] | 1 to 10 | 1 to 10
CCC[S+]([O-])c1c(S(=O)(=O)c2ccc(F)cc2)nc(-c2ccccc2)n1C (stereo not drawn) [BC19600] | > 10 | > 10
CC(C)[S+]([O-])c1c(S(=O)(=O)c2ccc(F)cc2)nc(-c2ccccc2)n1C (stereo not drawn) [BC19601] | > 10 | > 10
Cn1c(-c2ccccc2)nc(S(=O)(=O)c2ccc(F)cc2)c1[S+]([O-])CC1CC1 (stereo not drawn) [BC19602] | > 10 | > 10
O=C1NCCOc2c1cc(Br)cc2S(=O)(=O)Nc1ccc(Cl)cc1 [BC19603] | > 10 | 0.1 to 1
CCc1ccc(NS(=O)(=O)c2cc(Br)cc3c2OCCNC3=O)cc1 [BC19604] | > 10 | 1 to 10
CC(C)c1ccc(NS(=O)(=O)c2cc(Br)cc3c2OCCNC3=O)cc1 [BC19605] | > 10 | > 10
COc1ccc(NS(=O)(=O)c2cc(Br)cc3c2OCCNC3=O)cc1 [BC19606] | > 10 | 1 to 10
Cc1ccc(NS(=O)(=O)c2cc(Br)cc3c2OCCNC3=O)cc1Cl [BC19607] | > 10 | 0.1 to 1
O=C1NCCOc2c1cc(Br)cc2S(=O)(=O)Nc1ccc(F)cc1F [BC19608] | > 10 | 1 to 10
CCc1cccc(NS(=O)(=O)c2cc(Br)cc3c2OCCNC3=O)c1 [BC19609] | > 10 | 1 to 10
O=C1NCCOc2c1cc(Br)cc2S(=O)(=O)Nc1cccc(F)c1 [BC19610] | > 10 | 0.1 to 1
O=C1NCCOc2c1cc(Br)cc2S(=O)(=O)Nc1cccc(Cl)c1 [BC19611] | > 10 | < 0.1
Cc1ccc(NS(=O)(=O)c2cc(Br)cc3c2OCCNC3=O)cc1 [BC19612] | > 10 | 1 to 10
O=C1NCCOc2c1cc(Br)cc2S(=O)(=O)Nc1ccc(F)cc1Cl [BC19613] | > 10 | > 10
COc1ccc(NS(=O)(=O)c2cc(Br)cc3c2OCCNC3=O)cc1Cl [BC19614] | > 10 | > 10
N#Cc1ccc(NS(=O)(=O)c2cc(Br)cc3c2OCCNC3=O)cc1 [BC19615] | > 10 | 0.1 to 1

Next, values leading:

IC50 [1] [µM] | IC50 [2] [µM] | Structure (SMILES)
1 to 10 | 0.1 to 1 | CN1CCN(CCNC(=O)Nc2ccc3nc(-c4ccc(F)cc4)c(-c4ccc(F)cc4)nc3c2)CC1 [BC19616]
> 10 | 0.1 to 1 | O=C(NCCCN1CCCC1=O)Nc1ccc2nc(-c3ccc(F)cc3)c(-c3ccc(F)cc3)nc2c1 [BC19617]
> 10 | 0.1 to 1 | CN1CCN(C(=O)c2ccc3nc(-c4ccc(F)cc4)c(-c4ccc(F)cc4)nc3n2)CC1 [BC19618]
> 10 | 1 to 10 | CNc1ncc(-c2ccc3nc(-c4ccc(F)cc4)c(-c4ccc(F)cc4)nc3c2)o1 [BC19619]
> 10 | > 10 | CC(C)[S+]([O-])c1sc(-c2cccc(F)c2)nc1S(=O)(=O)c1ccc(Cl)cc1 (stereo not drawn) [BC19620]
1 to 10 | 1 to 10 | CCCS(=O)(=O)c1sc(-c2ccc(Cl)cc2)nc1S(=O)(=O)c1ccc(Cl)cc1 [BC19621]
1 to 10 | 1 to 10 | CC(C)S(=O)(=O)c1sc(-c2ccc(Cl)cc2)nc1S(=O)(=O)c1ccc(Cl)cc1 [BC19622]
> 10 | > 10 | O=S(=O)(c1ccc(Cl)cc1)c1nc(-c2ccc(Cl)cc2)sc1S(=O)(=O)C1CCCCC1 [BC19623]
1 to 10 | 1 to 10 | CCCS(=O)(=O)c1sc(-c2ccccc2)nc1S(=O)(=O)c1ccc(Cl)cc1 [BC19624]
1 to 10 | 1 to 10 | COCCS(=O)(=O)c1sc(-c2ccccc2)nc1S(=O)(=O)c1ccc(Cl)cc1 [BC19625]
1 to 10 | 1 to 10 | C[S+]([O-])c1sc(-c2ccccc2F)nc1S(=O)(=O)c1ccc(Cl)cc1 (stereo not drawn) [BC19626]
> 10 | 1 to 10 | CCC[S+]([O-])c1sc(-c2ccccc2F)nc1S(=O)(=O)c1ccc(Cl)cc1 (stereo not drawn) [BC19627]
> 10 | > 10 | CCCS(=O)(=O)c1sc(-c2ccccc2F)nc1S(=O)(=O)c1ccc(Cl)cc1 [BC19628]
> 10 | > 10 | CC(C)[S+]([O-])c1sc(-c2ccccc2F)nc1S(=O)(=O)c1ccc(Cl)cc1 (stereo not drawn) [BC19629]
1 to 10 | > 10 | CC(C)C[S+]([O-])c1sc(-c2ccccc2F)nc1S(=O)(=O)c1ccc(Cl)cc1 (stereo not drawn) [BC19630]
> 10 | 1 to 10 | CC(C)CS(=O)(=O)c1sc(-c2ccccc2F)nc1S(=O)(=O)c1ccc(Cl)cc1 [BC19631]
> 10 | > 10 | O=S(=O)(c1ccc(Cl)cc1)c1nc(-c2ccccc2F)sc1[S+]([O-])CC1CC1 (stereo not drawn) [BC19632]
1 to 10 | 1 to 10 | O=S(=O)(CC1CC1)c1sc(-c2ccccc2F)nc1S(=O)(=O)c1ccc(Cl)cc1 [BC19633]
> 10 | > 10 | Cn1c(-c2ccccc2)nc(S(=O)(=O)c2ccc(F)cc2)c1S(=O)(=O)CC1CC1 [BC19634]
> 10 | > 10 | CC(C)[S+]([O-])c1sc(C2CCCCC2)nc1S(=O)(=O)c1ccc(Cl)cc1 (stereo not drawn) [BC19635]
> 10 | > 10 | CC(C)S(=O)(=O)c1sc(C2CCCCC2)nc1S(=O)(=O)c1ccc(Cl)cc1 [BC19636]

IC50 [1] [µM] | IC50 [2] [µM] | Structure (SMILES)
> 10 | > 10 | CC(C)C[S+]([O-])c1sc(C2CCCCC2)nc1S(=O)(=O)c1ccc(Cl)cc1 (stereo not drawn) [BC19637]
> 10 | > 10 | CC(C)CS(=O)(=O)c1sc(C2CCCCC2)nc1S(=O)(=O)c1ccc(Cl)cc1 [BC19638]
> 10 | > 10 | O=S(=O)(CC1CC1)c1sc(C2CCCCC2)nc1S(=O)(=O)c1ccc(Cl)cc1 [BC19639]
> 10 | > 10 | C[S+]([O-])c1sc(C2CCCCC2)nc1S(=O)(=O)c1ccc(Cl)cc1 (stereo not drawn) [BC19640]
> 10 | > 10 | CS(=O)(=O)c1sc(C2CCCCC2)nc1S(=O)(=O)c1ccc(Cl)cc1 [BC19641]
> 10 | > 10 | COCC[S+]([O-])c1sc(C2CCCCC2)nc1S(=O)(=O)c1ccc(Cl)cc1 (stereo not drawn) [BC19642]
> 10 | > 10 | Cn1c(-c2ccccc2)nc(S(=O)(=O)c2ccc(F)cc2)c1[S+](C)[O-] (stereo not drawn) [BC19644]
> 10 | > 10 | CCC[S+]([O-])c1sc(C2CCCCC2)nc1S(=O)(=O)c1ccc(Cl)cc1 (stereo not drawn) [BC19645]
> 10 | > 10 | CCCS(=O)(=O)c1sc(C2CCCCC2)nc1S(=O)(=O)c1ccc(Cl)cc1 [BC19646]
1 to 10 | > 10 | O=S1(=O)CCCn2c(-c3ccccc3)nc(S(=O)(=O)c3ccc(Cl)cc3)c21 [BC19647]
> 10 | < 0.1 | O=C1CCOc2c(cc(Br)cc2S(=O)(=O)Nc2ccc(OC(F)(F)F)cc2)N1 [BC19648]
> 10 | < 0.1 | O=C1CCOc2c(cc(Br)cc2S(=O)(=O)Nc2cccc(F)c2)N1 [BC19649]
> 10 | < 0.1 | O=C1CCOc2c(cc(Br)cc2S(=O)(=O)Nc2cccc(Cl)c2)N1 [BC19650]
> 10 | 0.1 to 1 | Cc1ccc(NS(=O)(=O)c2cc(Br)cc3c2OCCC(=O)N3)cc1Cl [BC19651]
> 10 | 1 to 10 | O=C1CCOc2cc(S(=O)(=O)Nc3ccc(OC(F)(F)F)cc3)c(Br)cc2N1 [BC19652]
> 10 | > 10 | Cc1ccc(NS(=O)(=O)c2cc3c(cc2Br)NC(=O)CCO3)cc1F [BC19653]
> 10 | > 10 | O=C1CCOc2cc(S(=O)(=O)Nc3cccc(F)c3)c(Br)cc2N1 [BC19654]
> 10 | > 10 | O=C1CCOc2cc(S(=O)(=O)Nc3cccc(Cl)c3)c(Br)cc2N1 [BC19655]
> 10 | 1 to 10 | O=C1CCOc2cc(S(=O)(=O)Nc3ccc(Cl)cc3)c(Br)cc2N1 [BC19656]
> 10 | 1 to 10 | CCc1cccc(NS(=O)(=O)c2cc3c(cc2Br)NC(=O)CCO3)c1 [BC19657]

— patent publication US12606528B2, “Methods and materials for inhibiting NF-kB activity” (University of Pittsburgh - Of the Commonwealth System of …, priority 2019, dated 2026)
